# Measurements from US11938136B2, “Compositions for treating spinal muscular atrophy” (Hoffmann-La Roche Inc., priority 2015, dated 2024).
# Like-named read-outs stand apart in the source and are kept apart here.
# Experiments:
# Solubility = format: physicochemical
# [1] = Stability of olesoxime (solid state, oral suspension in sesame oil); format: physicochemical; settings: 25° C./60% RH
# Experimental: Examples of compositions comprising olexosime are described in US2010099652A1. […] Olesoxime has low aqueous solubility (less than 5 μg/ml) across the physiological pH range. It is freely soluble or soluble in a range of non-aqueous solvents.
# 7.5 g crystalline olesoxime powder (particle size distribution with d90 value 70-90 μm) was suspended in 75 ml (61.6 g) sesame oil (refined) as vehicle through agitation (e.g. shaking) to yield a homogeneous suspension (final olesoxime concentration 100 mg/ml).
# [2] = tested on: patients with Types 2 and 3 SMA; settings: two-year treatment period, compared with approximately two-point decline in the placebo arm; cited from earlier work
# neonatal rats = settings: cited from earlier work
# adult mice = settings: cited from earlier work
# [3] = tested on: full length SMN2 minigene mRNA; assay: SMN2 minigene mRNA splicing RT-qPCR assay in cultured cells; format: cell-based, human; settings: Homo sapiens, HEK293-H; HEK293H cells stably transfected with SMN2-A minigene, 24 hours, 7-point concentration curve; read-out: EC1.5x minigene
# Source text: The term “EC1.5x concentration for production of full length SMN2 minigene mRNA” (or “EC1.5x minigene”) is defined as that concentration of test compound that is effective in increasing the amount of full length SMN2 minigene mRNA to a level 1.5-fold greater relative to that in vehicle-treated cells.
# The reverse transcription-quantitative PCR-based (RT-qPCR) assay is used to quantify the level of the full length SMN2 minigene (referred to herein by the term “FL SMN2mini”) mRNA containing SMN2 exon 7 in a HEK293H cell line stably transfected with said minigene and treated with a test compound. Materials used and respective sources are listed below in Table 1.
# The SMN2-A minigene construct was prepared as described in International Patent Application WO2009/151546A1 page 145 paragraph [00400] to page 147 paragraph [00412](incl. FIG. 1 and FIG. 3 therein).
# HEK293H cells stably transfected with the SMN2-A minigene construct (10,000 cells/well) are seeded in 200 μL of cell culture medium (DMEM plus 10% FBS, with 200 μg/mL hygromycin) in 96-well flat-bottom plates and the plate is immediately swirled to ensure proper dispersal of cells and the formation of an even monolayer of cells. Cells are allowed to attach for 6 hours. Test compounds are serially diluted 3.16-fold in 100% DMSO to generate a 7-point concentration curve. A solution of test compound (1 μL, 200× in DMSO) is added to each cell-containing well and the plate is incubated for 24 hours in a cell culture incubator (37° C., 5% CO2, 100% relative humidity). 2 replicates are prepared for each test compound concentration. The cells are then lysed in the Cells-To-Ct lysis buffer and the lysate is stored at −80° C.
# Full length SMN2-A minigene and GAPDH mRNA are quantified using the primers and probes referenced in WO2014/209841A2 on page 80 in Table 1. Primer SMN Forward A (SEQ ID NO.1) hybridizes to a nucleotide sequence in exon 7 (nucleotide 22 to nucleotide 40), primer SMN Reverse A (SEQ ID NO.2) hybridizes to a nucleotide sequence in the coding sequence of Firefly luciferase, SMN Probe A (SEQ ID NO.3) hybridizes to a nucleotide sequence in exon 7 (nucleotide 50 to nucleotide 54) and exon 8 (nucleotide 1 to nucleotide 21). The combination of these three oligonucleotides detects only SMN1 or SMN2 minigenes (RT-qPCR) and will not detect endogenous SMN1 or SMN2 genes.
# The SMN forward and reverse primers are used at final concentrations of 0.4 μM. The SMN probe is used at a final concentration of 0.15 μM. The GAPDH primers are used at final concentrations of 0.2 μM and the probe at 0.15 μM.
# The SMN2-minigene GAPDH mix (15 μL total volume) is prepared by combining 7.5 μL of 2×RT-PCR buffer, 0.4 μL of 25×RT-PCR enzyme mix, 0.75 μL of 20×GAPDH primer-probe mix, 4.0075 μL of water, 2 μL of 10-fold diluted cell lysate, 0.06 μL of 100 μM SMN forward primer, 0.06 μL of 100 μM SMN reverse primer, and 0.225 μL of 100 μM SMN probe.
# PCR is carried out at the following temperatures for the indicated time: Step 1: 48° C. (15 min); Step 2: 95° C. (10 min); Step 3: 95° C. (15 sec); Step 4: 60° C. (1 min); then repeat Steps 3 and 4 for a total of 40 cycles.
# Each reaction mixture contains both SMN2-A minigene and GAPDH primers/probe sets (multiplex design), allowing simultaneous measurement of the levels of two transcripts.
# The increase in the abundance of the FL SMN2mini mRNA relative to that in cells treated with vehicle control is determined from real-time PCR data using a modified ΔΔCt method (as described in Livak and Schmittgen, Methods, 2001, 25:402-8). The amplification efficiency E is calculated from the slope of the amplification curve for FL SMN2mini and GAPDH individually. The abundance of FL SMN2mini and GAPDH mRNA are then calculated as (1+E)^−Ct, where Ct is the threshold value for each amplicon. The abundance of FL SMN2mini mRNA is normalized to GAPDH mRNA abundance. […]
# [4] = tested on: splicing events and expression levels of genes; settings: Palacino et al, Nat Chem Biol. 2015, cited from earlier work
Structure (SMILES),EC (1.5-fold increase) [3],also measured
"CC(C)CCC[C@@H](C)[C@H]1CC[C@H]2[C@@H]3CCC4=C/C(=N/O)CC[C@]4(C)[C@H]3CC[C@]12C (stereo in doubt) [Olesoxime, Cholest-4-en-3-one oxime]",,"solubility (Solubility; aqueous medium, aqueous buffer, across the physiological pH range, read-out: aqueous solubility): < 0.005 mg/mL; solubility (Solubility; sesame oil, oil or lipid, read-out: solubility in sesame oil): ~35 mg/mL; stable in the solid state [1]: > 36 months; motor function (motor function measure, MFM) [2]: maintenance of motor function; effect on motor neurons after nerve lesion (neonatal rats): rescues motor neurons from cell death; effect on nerve regeneration after nerve crush (adult mice): promotes nerve regeneration"
"Cc1cn2nc(-c3cc(=O)n4cc(N5CCN6CCC[C@@]6(C)C5)ccc4n3)cc(C)c2n1 [Example 5, 7-[(8aS)-8a-methyl-1,3,4,6,7,8-hexahydropyrrolo[1,2-a]pyrazin-2-yl]-2-(2,8-dimethylimidazo[1,2-b]pyridazin-6-yl)pyrido[1,2-a]pyrimidin-4-one]",0.0006 µM,
"Cc1cn2nc(-c3cc(=O)n4cc(N5CCN[C@@H](C)C5)ccc4n3)cc(C)c2n1 [Example 8, 2-(2,8-dimethylimidazo[1,2-b]pyridazin-6-yl)-7-[(3S)-3-methylpiperazin-1-yl]pyrido[1,2-a]pyrimidin-4-one]",0.0003 µM,
"Cc1cn2nc(-c3cc(=O)n4cc(N5CCN[C@H](C)C5)ccc4n3)cc(C)c2n1 [Example 9, 2-(2,8-dimethylimidazo[1,2-b]pyridazin-6-yl)-7-[(3R)-3-methylpiperazin-1-yl]pyrido[1,2-a]pyrimidin-4-one]",0.0001 µM,
"Cc1cn2nc(-c3cc(=O)n4cc(N5CCCNCC5)ccc4n3)ccc2n1 [Example 13, 7-(1,4-diazepan-1-yl)-2-(2-methylimidazo[1,2-b]pyridazin-6-yl)pyrido[1,2-a]pyrimidin-4-one]",0.005 µM,
"Cc1cn2nc(-c3cc(=O)n4cc(N5CCN6CCC[C@H]6C5)ccc4n3)ccc2n1 [Example 15, 7-[(8aS)-3,4,6,7,8,8a-hexahydro-1H-pyrrolo[1,2-a]pyrazin-2-yl]-2-(2-methylimidazo[1,2-b]pyridazin-6-yl)pyrido[1,2-a]pyrimidin-4-one]",0.004 µM,
"Cc1cn2nc(-c3cc(=O)n4cc(N5CCNC(C)(C)C5)ccc4n3)cc(C)c2n1 [Example 22, 2-(2,8-dimethylimidazo[1,2-b]pyridazin-6-yl)-7-(3,3-dimethylpiperazin-1-yl)pyrido[1,2-a]pyrimidin-4-one]",0.0009 µM,
"Cc1cn2nc(-c3cc(=O)n4cc(N5CCN[C@@H](C)C5)cc(C)c4n3)cc(C)c2n1 [Example 24, 2-(2,8-dimethylimidazo[1,2-b]pyridazin-6-yl)-9-methyl-7-[(3S)-3-methylpiperazin-1-yl]pyrido[1,2-a]pyrimidin-4-one]",0.0004 µM,
"Cc1cn2nc(-c3cc(=O)n4cc(N5CCN[C@H](C)C5)cc(C)c4n3)cc(C)c2n1 [Example 25, 2-(2,8-dimethylimidazo[1,2-b]pyridazin-6-yl)-9-methyl-7-[(3R)-3-methylpiperazin-1-yl]pyrido[1,2-a]pyrimidin-4-one]",0.0005 µM,
"Cc1cn2nc(-c3cc(=O)n4cc(N5CCNC6(CC6)C5)cc(C)c4n3)cc(C)c2n1 [Example 28, 7-(4,7-diazaspiro[2.5]octan-7-yl)-2-(2,8-dimethylimidazo[1,2-b]pyridazin-6-yl)-9-methyl-pyrido[1,2-a]pyrimidin-4-one]",0.005 µM,
"Cc1cn2nc(-c3cc(=O)n4cc(N5C[C@H](C)N[C@@H](C)C5)ccc4n3)cc(C)c2n1 [Example 29, 2-(2,8-dimethylimidazo[1,2-b]pyridazin-6-yl)-7-[(3S,5S)-3,5-dimethylpiperazin-1-yl]pyrido[1,2-a]pyrimidin-4-one]",0.0003 µM,
"Cc1cn2nc(-c3cc(=O)n4cc(N5CC[C@H](N6CCCC6)C5)ccc4n3)cc(C)c2n1 [Example 30, 2-(2,8-dimethylimidazo[1,2-b]pyridazin-6-yl)-7-[(3S)-3-pyrrolidin-1-ylpyrrolidin-1-yl]pyrido[1,2-a]pyrimidin-4-one]",0.003 µM,
"Cc1cn2nc(-c3cc(=O)n4cc(N5CCN[C@@H](C)C5)cc(C)c4n3)ccc2n1 [Example 33, 9-methyl-2-(2-methylimidazo[1,2-b]pyridazin-6-yl)-7-[(3S)-3-methylpiperazin-1-yl]pyrido[1,2-a]pyrimidin-4-one]",0.0005 µM,
"Cc1cn2nc(-c3cc(=O)n4cc(N5CCN[C@H](C)C5)cc(C)c4n3)ccc2n1 [Example 34, 9-methyl-2-(2-methylimidazo[1,2-b]pyridazin-6-yl)-7-[(3R)-3-methylpiperazin-1-yl]pyrido[1,2-a]pyrimidin-4-one]",0.0009 µM,
"Cc1cn2nc(-c3cc(=O)n4cc(N5CCNC(C)(C)C5)cc(C)c4n3)ccc2n1 [Example 36, 7-(3,3-dimethylpiperazin-1-yl)-9-methyl-2-(2-methylimidazo[1,2-b]pyridazin-6-yl)pyrido[1,2-a]pyrimidin-4-one]",0.005 µM,
"Cc1cn2nc(-c3cc(=O)n4cc(N5C[C@H](C)N[C@@H](C)C5)cc(C)c4n3)ccc2n1 [Example 38, 7-[(3S,5S)-3,5-dimethylpiperazin-1-yl]-9-methyl-2-(2-methylimidazo[1,2-b]pyridazin-6-yl)pyrido[1,2-a]pyrimidin-4-one]",0.0003 µM,
"CC[C@@H]1CN(c2ccc3nc(-c4ccc5nc(C)cn5n4)cc(=O)n3c2)CCN1 [Example 39, 7-[(3R)-3-ethylpiperazin-1-yl]-2-(2-methylimidazo[1,2-b]pyridazin-6-yl)pyrido[1,2-a]pyrimidin-4-one]",0.0009 µM,
CC1(C)CC(Oc2ccc(-c3ccc(-c4cn[nH]c4)cc3O)nn2)CC(C)(C)N1 [NVS-SM1],,candidate events where splicing changed in response to treatment [4]: 39; number of genes changed at greater than ±2-fold (p<0.05) ([4]; expression level): 175
